In patent US10457673B2, “Heteroatom containing deoxyuridine triphosphatase inhibitors” (University of Southern California, priority 2014, dated 2019) one finds colonies formed and growth inhibition data, which are given here for 2 compounds.

Test [1] has as its system colorectal (HCT116), breast (MCF-7) and non-small cell lung (H1299, A549, H358 and H460) cell line models. Nature of the test: Colony forming assay. It counts as cell-based. As to conditions: increasing concentrations of FUdR between 0.5 and 2.5 μmon; all cell lines evaluated. The protocol: Colony forming assay showing the ability of colon (SW620, HCT116), non-small cell lung (A549, H460, H1299 and H358) and breast (MCF7) cancer cells to survive and proliferate following transient 24 hour exposure to test compounds, FUdR and combinations are determined. Specifically, cells are seeded at densities between 50 and 100 cells/well in 24-well plates. […] After 24 hours, drug is removed, cells are rinsed and allowed to outgrow for 10-14 days. At the conclusion of the outgrowth, cells are fixed in 60% ice cold methanol and stained with 0.1% crystal violet, scanned and counted. Data is presented as percentage of untreated controls (mean±SD). Fraction affected and combination indexes are calculated according to the method of Chou and Talalay where <1 is indicative of a synergistic drug interaction.
In colorectal cancer cells, concentrations of test compounds ranging e.g., from 3.1 μmol/L to 50 μmol/L are combined with 0.5 μmol/L FUdR in HCT116 cells and 1 μmol/L FUdR in SW620 cells.

Test [2] deals with colorectal (HCT116 and SW620) cell line models. Nature of the test: MTS growth inhibition assay. Conditions: increasing concentrations of 5-FU between 0 and 100 μmol/L; both colorectal cancer cell lines evaluated. It counts as cell-based. The method, then: The Cell Titer AQueous MTS assay (Promega) is carried out according to the manufacturers guidelines. […] The combination effect is determined by the combination index (CI) method utilizing Calcusyn software (Biosoft, Ferguson, Mo.). Fraction affected (FA) is calculated from the percent growth inhibition: FA=[…]. CI values <1, synergism; 1-1.2, additive and >1.2, antagonism.
MTS growth inhibition assays are performed to evaluate the effectiveness of the test compounds alone and in combination with the fluoropyrimidine thymidylate synthase (TS) inhibitor 5-fluorouracil (5-FU) at inhibiting the growth of colorectal (HCT116 and SW620) cell line models. […] Simultaneous treatment with increasing concentrations of 5-FU and a test compound at fixed concentrations of 25 μmol/L is determined.
For orientation: Tetrazolium dyes change colour on reduction, which living cells bring about.

Take `O=c1[nH]c(=O)n([C@H]2C[C@H](O)[C@@H](CO)O2)cc1F` [FUdR, fluorodeoxyuridine]: in test [1], the colonies formed result was “dose-dependent decreases in colonies formed”.

Regarding `O=c1[nH]cc(F)c(=O)[nH]1` [Example 5-FU, 5-fluorouracil], the growth inhibition result in test [2] is “dose-dependent increases in growth inhibition”.
